In US20230320999A1, “NON-THERAPEUTIC METHODS FOR ALLEVIATING OR REDUCING STRESS SYMPTOMS OF RUMINANTS” (DSM IP Assets B.V., priority 2018, published 2023):

Test system: rumen metabolites (Dimethylsulfone)
Test: Rumen metabolites in rumen fluid of fistulated steers, quantified by NMR after 21 days of treatment
Assay type: in vivo, Brahman steers (Bos indicus)
Conditions: for Dimethylsulfone in rumen fluid: rumen fluid 3 h post feeding, days 20 and 21, 4 steers; for Change of the methyl donor (dimethylsulfone) in rumen fluid versus control period, in words: 21 days of treatment, Brahman steers
Source text: Eight fistulated Brahman steers (Bos indicus) were randomly allocated to two groups (4 animals per group) and received a forage ad libitum diet (Rhode grass hay (Chloris […]), chemical composition: DM, 917 g/kg fresh matter; in g/kg of DM: OM, 806; CP, 169; NDF, 661; ADF, 359; ADL, 46; ash, 116 and GE 17.38 MJ/kg). […] Animals were adapted to the diet over a 21 d period. After that initial period, experimental animals were placed into individual pens in an animal house for the measurement of intakes (10 d) and were treated with cyclodextrin (2 g/100 kg LW) and molasses (60 mL/d). On the last 2 days animals were placed into open-circuit respiration chambers for collection of rumen samples. […] On days 20 and 21 of treatment both groups were placed in open-circuit respiration chambers for rumen fluid collection. Rumen fluid samples (approx. 60 mL per animal) were collected using a probe with 2 layers of cheesecloth through the cannula of the animal at 3 h post feeding, during confinement in respiration chambers to determine rumen metabolites.

Row | Structure (SMILES) | Dimethylsulfone in rumen fluid (2.5 g propanediol mononitrate/animal/day for 21 days, control period value 20) [μmol/L rumen fluid] | Change of the methyl donor (dimethylsulfone) in rumen fluid versus control period, in words | Dimethylsulfone in rumen fluid (1.6 g chloroform-CD/100 kg LW for 21 days, control period value 21) [μmol/L rumen fluid]
1 | O=[N+]([O-])OCCCO [PDMN, 1,3-propanediol mononitrate] | 113 | statistically significant increase | –
2 | ClC(Cl)Cl [Chloroform, chloroform] | – | statistically significant increase | 80
